Tested on: brain cell types
Assay: In vivo two-photon imaging of mouse cortex after topical cortical administration of fluorophores
Experimental: Briefly, animals are anaesthetized via intraperitoneal injections of ketamine/xylazine or via inhaled isoflurane. A region of the skull (3×3 mm) is gently removed with a high-speed drill and the underlying dura is removed. A small glass coverslip is placed over the skull to allow long term optical access for in vivo imaging. Labeling with fluorescent dyes is performed either via intravenous injections or topically application to the cortical surface for 20 min prior to glass cover placement. After recovery, in vivo images are acquired using a two-photon microscope (Bruker Technologies) equipped with a multimodal (fixed wavelength 1040 nm and tunable wavelength) InSight X3 two-photon laser (Spectra Physics) and 20× water immersion objective (Zeiss 1.0N.A.). The two-photon laser is appropriately tuned to excite particular fluorescent dyes and proteins as needed. In selected cases, following in vivo imaging, mice will be sacrificed and perfused for follow up immunohistochemistry and high-resolution confocal imaging (Leica SP8) to further confirm colocalization of dyes and cells expressing particular transporters.
One-month-old wild-type mice were anesthetized using a ketamine/xylazine solution at doses of 100 mg/kg and 10 mg/kg, respectively. The fur around the skull area was shaved, and buprenex (0.1 mg per kg) and carprofen (5 mg per kg) were administered subcutaneously. Mice were kept on a heating pad at 37° C., and anesthesia was periodically monitored. The skin was treated with povidone-iodine solution, followed by cleaning with ethanol, and eye ointment was applied. A small skin section was excised to expose the skull. Thinning of the skull was performed in a circular area, followed by delicately lifting of the remaining skull without harm to the underlying brain. Within the circular region, the dura was gently removed using fine forceps, and a 4 mm cover glass was softly pressed onto the brain surface and affixed to the skull. Fluorescent dyes were applied either through intravenous injections or topically to the cortical surface for 20 minutes before placing the glass cover. A customized head bar was attached either by adhesive (for acute imaging) or permanently implanted (using dental cement, for chronic imaging) onto the skull. Mice were imaged under a two-photon microscope (Prairie Technologies) with a mode-locked MaiTai tunable laser (Spectra Physics). Imaging was performed with a 20× water immersion objective (Zeiss, 1.0NA). Images were captured at depths up to 300 μm from the pial surface using excitation wavelengths ranging from 750 to 950 nm as previously described. Mice undergoing chronic imaging received a recovery period on a heating pad post-surgery, and buprenex (0.1 mg per kg) and carprofen (5 mg per kg) were administered for 3 days.
Batches of 10 compounds were applied through the craniotomy to the cortical surface before placing a cover glass window. No additional washings were performed, and the cover glass was placed, allowing up to 3 hours of imaging of the cortical surface with a two-photon microscope. Following imaging, the data were analyzed to identify potential patterns of cell-specific labeling. […] Positive batches underwent three additional rounds of imaging, with each batch being sequentially split, until a single compound displaying cell-type-specific labeling was identified. As these compounds were not initially purified, the labeling may have resulted from fluorescent byproducts of synthesis. Consequently, large-scale synthesis, purification and characterization (FIGS. 29A-29D) of the identified compounds were conducted. The purified compounds were subsequently retested using in vivo imaging to confirm cell type specificity.
It was reasoned that the best strategy to identify fluorophores with specific affinity to certain cell types and transport mechanisms would be by direct screening in the intact in vivo brain microenvironment. […]

SMILES | Target (cell type taking up the compound in vivo (Table 1)) | labeling of other (non-endothelial) cell types (topical application to cortex) | endothelial cell labeling/uptake after topical application to the brain (topical cortical application) | cellular labeling in cortex (topical cortical administration, 50 μM, wild type mice)
O=S(=O)([O-])c1cc(S(=O)(=O)O)ccc1C1=c2cc3c4c(c2Oc2cc(Br)ccc21)CCC[N+]=4CCC3 [Compound 1, 2-(12-bromo-1,2,3,5,6,7-hexahydrochromeno[2,3-f]pyrido[3,2,1-ij]quinolin-4-ium-9-yl)-5-sulfobenzenesulfonate] | Endothelial | only endothelial cells are labeled | Highly specific labeling of endothelial cells within capillaries | –
COc1cc2c(c(OC)c1OC)-c1ccc(OC)c(=O)cc1C(NS(=O)(=O)c1ccc(-c3c4ccc(N(C)C)cc4[o+]c4cc(N(C)C)ccc34)c(S(=O)(=O)[O-])c1)CC2 (stereo not shown) [Compound 47, 2-(3,6-bis(dimethylamino)xanthylium-9-yl)-5-(N-(1,2,3,10-tetramethoxy-9-oxo-5,6,7,9-tetrahydrobenzo[a]heptalen-7-yl)sulfamoyl)benzenesulfonate] | – | – | – | labeling of endothelial processes (arrow) and cell bodies (arrowhead)

Source: US20260272895A1, “METHODS AND KITS FOR DELIVERY OF COMPOUNDS INTO CELLS” (Yale University, priority 2023, published 2026)
